Molecular target: fly head P2 membranes
Experiment: radiometric assay: displacement of 3H-dihydro-CJ-12662 from fly head P2 membranes (Ki; also single-concentration high throughput screen, % inhibition)
Design: species or system Lucilia sericata
Conditions: radioligand binding to fly head P2 membranes; value used to calculate Ki values
Protocol: A further aspect of the invention is a novel binding assay which is used to assess the potential antiparasitic activity of these compounds by measuring how tightly they bind to membranes purified from parasite homogenates. The affinity is calculated according to how readily the compounds of the present invention displace a radiolabeled, reduced analogue of (1S,2R,4aS,5R,8R,8aR)-2-(acetyloxy)-8a-hydroxy-3,8-dimethyl-5-(1-methylethenyl)-1,2,4a,5,6,7,8,8a-octahydronaphthalen-1-yl(2S,3aR,9bR)-6-chloro-9b-hydroxy-5-methyl-1,2,3,3a,5,9b-hexahydropyrrolo[2,3-c][2,1]benzoxazine-2-carboxylate from these membranes.
The in vitro assay for measurement of compounds which displace ^3H-dihydro-(1S,2R,4aS,5R,8R,8aR)-2-(acetyloxy)-8a-hydroxy-3,8-dimethyl-5-(1-methylethenyl)-1,2,4a,5,6,7,8,8a-octahydronaphthalen-1-yl(2S,3aR,9bR)-6-chloro-9b-hydroxy-5-methyl-1,2,3,3a,5,9b-hexahydropyrrolo[2,3-c][2,1]benzoxazine-2-carboxylate from fly head P2 membranes represents another aspect of the invention and was performed as follows. […]

^3H-dihydro-(1S,2R,4aS,5R,8R,8aR)-2-(acetyloxy)-8a-hydroxy-3,8-dimethyl-5-(1-methylethenyl)-1,2,4a,5,6,7,8,8a-octahydronaphthalen-1-yl(2S,3aR,9bR)-6-chloro-9b-hydroxy-5-methyl-1,2,3,3a,5,9b-hexahydropyrrolo[2,3-c][2,1]benzoxazine-2-carboxylate [^3H-dihydro-CJ-12662]
Kd: 7 nM
